Like-named read-outs stand apart in the source and are kept apart here.
How the values were obtained:
[1] = target: CYP2C19 (Homo sapiens (Human), UniProt P33261); experiment: CYP2C19 Vivid blue substrate O-dealkylation inhibition; format: biochemical
[2] = target: CYP2C9 (Homo sapiens (Human), UniProt P11712); experiment: CYP2C9 Vivid blue substrate O-dealkylation inhibition; format: biochemical
[3] = target: T1, P450 2A6dH (Homo sapiens (Human), UniProt P11509, INS494HHHH); experiment: Difference spectra of test compounds with N-terminal truncated CYP2A6; details: difference spectrum with truncated CYP2A6
T1 sequence (P11509 other isoform, or with tags, fused parts or gaps 1-28 replaced by MAKKTS/ins HHHH behind 494): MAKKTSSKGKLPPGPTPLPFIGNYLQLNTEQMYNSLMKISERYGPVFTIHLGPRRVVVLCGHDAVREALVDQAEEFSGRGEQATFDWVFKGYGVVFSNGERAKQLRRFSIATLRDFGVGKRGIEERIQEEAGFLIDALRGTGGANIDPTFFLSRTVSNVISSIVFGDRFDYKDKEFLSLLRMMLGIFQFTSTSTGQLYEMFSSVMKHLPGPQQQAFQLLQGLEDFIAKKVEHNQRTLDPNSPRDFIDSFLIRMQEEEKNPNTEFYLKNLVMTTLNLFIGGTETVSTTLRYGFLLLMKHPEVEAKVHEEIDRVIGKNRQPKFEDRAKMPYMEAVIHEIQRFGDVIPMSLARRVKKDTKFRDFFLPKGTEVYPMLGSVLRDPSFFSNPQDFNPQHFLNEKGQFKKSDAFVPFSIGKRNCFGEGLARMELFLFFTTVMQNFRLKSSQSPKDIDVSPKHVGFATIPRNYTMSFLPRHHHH
Protocol: (§3) Subsequently, test compound (in 100% ethanol, 10 μM) was added to both the cuvettes. The maximal ethanol concentration used was 2%. The difference spectra were obtained after the system reached equilibrium (3 min). All spectra were recorded at 25° C.

[4] = target: CYP2D6 (Homo sapiens (Human), UniProt P10635); experiment: CYP2D6 Vivid blue substrate O-dealkylation inhibition; format: biochemical
[5] = target: CYP3A4 (Homo sapiens (Human), UniProt P08684); experiment: in vitro
Sequence of CYP3A4 (P08684 whole entry): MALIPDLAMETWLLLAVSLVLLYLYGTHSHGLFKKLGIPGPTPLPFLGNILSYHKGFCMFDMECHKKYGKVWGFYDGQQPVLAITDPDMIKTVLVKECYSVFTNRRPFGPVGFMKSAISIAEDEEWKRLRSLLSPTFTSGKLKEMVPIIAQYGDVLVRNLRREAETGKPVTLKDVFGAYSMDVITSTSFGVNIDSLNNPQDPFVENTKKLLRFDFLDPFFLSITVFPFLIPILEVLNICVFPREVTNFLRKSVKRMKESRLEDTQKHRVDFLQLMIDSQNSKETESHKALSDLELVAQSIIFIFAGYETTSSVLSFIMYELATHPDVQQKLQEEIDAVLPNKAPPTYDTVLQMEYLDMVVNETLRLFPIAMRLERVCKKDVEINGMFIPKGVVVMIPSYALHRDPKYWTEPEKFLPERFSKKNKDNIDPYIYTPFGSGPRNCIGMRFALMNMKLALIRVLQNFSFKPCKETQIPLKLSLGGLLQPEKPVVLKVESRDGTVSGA
Protocol: (§1) To gain insight into the selectivity of the synthetic compounds, nicotine, nicotine related alkaloids and nicotine metabolites for inhibition of other CYPs, we examined the major CYP present in human liver (i.e., CYP 3A4). […] A typical incubation mixture ([…] ), 0.5 mM NADP^+, 2.0 mM G6P, 1 U of G6P dehydrogenase, […] inhibitor was added last as to minimize interaction with the protein. After mixing on ice, the reaction was initiated by the addition of substrate and incubated at 37° C. with shaking in air. Organic extracts were injected onto a Hitachi L-7100 system equipped with a Hitachi L-7400 UV detector. Separations were done with an Altex Ultrasphere ODS (4.6 mm×250 mm, 5 μm) column. The analytes were eluted with an isocratic solvent system consisting of water/acetonitrile/methanol (30:10:60, v/v/v) at a flow rate of 1.0 mL/min. […] Quantification of substrate and metabolite was determined from peak areas of the chromatogram and comparison with standard curves. IC50 values were determined as described below.
(§2) To measure CYP3A4 activity, testosterone 6-hydroxylation was determined.

[6] = Mouse liver microsome stability assay; details: mouse liver microsomes
Protocol: The residue was reconstituted in methanol (200 μL), centrifuged at 13,000 rpm for 5 min and the supernatant was analyzed by high-performance liquid chromatography with an Axxi-chrom (straight-phase) silica column (4.6 mm×250 mm, 5 μm) or with a Supelco (reverse-phase) HS F5 pentafluorophenyl column (4.6 mm×250 mm, 5 μm).

[7] = target: CYP2E1 (Homo sapiens (Human), UniProt P05181); experiment: CYP2E1 Vivid blue substrate O-dealkylation inhibition; format: biochemical
Sequence of CYP2E1 (P05181 whole entry): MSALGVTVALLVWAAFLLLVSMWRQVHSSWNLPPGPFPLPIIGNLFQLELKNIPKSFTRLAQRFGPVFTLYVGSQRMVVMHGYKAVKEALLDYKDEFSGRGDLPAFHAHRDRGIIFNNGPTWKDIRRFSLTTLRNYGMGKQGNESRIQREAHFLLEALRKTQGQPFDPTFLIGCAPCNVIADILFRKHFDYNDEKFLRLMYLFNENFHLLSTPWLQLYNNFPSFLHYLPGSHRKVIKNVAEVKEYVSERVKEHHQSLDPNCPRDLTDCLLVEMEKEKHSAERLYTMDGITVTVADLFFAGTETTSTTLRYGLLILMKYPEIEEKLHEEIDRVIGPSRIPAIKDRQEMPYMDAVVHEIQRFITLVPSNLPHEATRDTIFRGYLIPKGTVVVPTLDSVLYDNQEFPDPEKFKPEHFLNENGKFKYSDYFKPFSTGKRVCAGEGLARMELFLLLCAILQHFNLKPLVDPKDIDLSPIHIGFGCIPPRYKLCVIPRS

[8] = target: CYP2B6 (Homo sapiens (Human), UniProt P20813); experiment: CYP2B6 Vivid blue substrate O-dealkylation inhibition; format: biochemical
Sequence of CYP2B6 (P20813 whole entry): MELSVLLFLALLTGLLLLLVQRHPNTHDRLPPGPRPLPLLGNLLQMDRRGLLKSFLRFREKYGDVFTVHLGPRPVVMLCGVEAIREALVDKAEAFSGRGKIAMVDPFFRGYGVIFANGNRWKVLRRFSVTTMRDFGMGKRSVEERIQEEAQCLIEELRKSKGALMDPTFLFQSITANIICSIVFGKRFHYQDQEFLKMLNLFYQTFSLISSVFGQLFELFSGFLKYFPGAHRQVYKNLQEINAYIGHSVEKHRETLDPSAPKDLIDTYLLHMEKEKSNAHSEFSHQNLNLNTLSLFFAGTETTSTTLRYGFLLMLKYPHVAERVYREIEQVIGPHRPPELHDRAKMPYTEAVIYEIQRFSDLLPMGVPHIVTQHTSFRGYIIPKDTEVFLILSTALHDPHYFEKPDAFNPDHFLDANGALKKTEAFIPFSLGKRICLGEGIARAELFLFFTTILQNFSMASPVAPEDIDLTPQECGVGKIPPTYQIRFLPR

[9] = target: CYP2C19 relative to CYP2A6 (Homo sapiens (Human), UniProt P33261); experiment: CYP2C19 Vivid blue substrate O-dealkylation inhibition; format: biochemical
Sequence of CYP2C19 relative to CYP2A6 (P33261 whole entry): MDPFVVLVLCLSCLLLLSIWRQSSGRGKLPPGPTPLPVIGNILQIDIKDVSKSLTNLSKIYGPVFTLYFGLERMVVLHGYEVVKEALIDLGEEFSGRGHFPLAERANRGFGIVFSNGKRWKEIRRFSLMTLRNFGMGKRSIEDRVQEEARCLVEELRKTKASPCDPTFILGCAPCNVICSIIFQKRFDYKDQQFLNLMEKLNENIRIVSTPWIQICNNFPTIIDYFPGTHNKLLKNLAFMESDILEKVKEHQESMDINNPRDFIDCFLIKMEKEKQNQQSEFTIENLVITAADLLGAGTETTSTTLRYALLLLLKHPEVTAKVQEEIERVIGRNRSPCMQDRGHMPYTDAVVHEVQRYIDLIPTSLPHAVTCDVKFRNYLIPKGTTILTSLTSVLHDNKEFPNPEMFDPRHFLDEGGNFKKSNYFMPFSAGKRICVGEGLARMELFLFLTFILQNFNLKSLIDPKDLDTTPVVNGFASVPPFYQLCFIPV

[10] = target: CYP2C9 relative to CYP2A6 (Homo sapiens (Human), UniProt P11712); experiment: CYP2C9 Vivid blue substrate O-dealkylation inhibition; format: biochemical
Sequence of CYP2C9 relative to CYP2A6 (P11712 whole entry): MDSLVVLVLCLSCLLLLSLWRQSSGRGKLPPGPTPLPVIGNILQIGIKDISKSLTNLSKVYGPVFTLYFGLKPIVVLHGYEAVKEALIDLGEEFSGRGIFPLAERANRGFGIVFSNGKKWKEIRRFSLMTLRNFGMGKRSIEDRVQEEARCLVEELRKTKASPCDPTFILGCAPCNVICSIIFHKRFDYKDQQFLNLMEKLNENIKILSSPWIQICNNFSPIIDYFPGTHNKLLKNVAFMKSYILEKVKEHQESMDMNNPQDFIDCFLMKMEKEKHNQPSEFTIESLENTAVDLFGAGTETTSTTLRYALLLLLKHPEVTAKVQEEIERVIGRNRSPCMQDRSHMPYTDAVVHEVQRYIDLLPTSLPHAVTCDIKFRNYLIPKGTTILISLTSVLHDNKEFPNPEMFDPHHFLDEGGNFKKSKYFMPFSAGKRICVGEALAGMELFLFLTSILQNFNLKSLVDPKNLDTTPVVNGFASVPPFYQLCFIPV

[11] = target: CYP2D6 relative to CYP2A6 (Homo sapiens (Human), UniProt P10635); experiment: CYP2D6 Vivid blue substrate O-dealkylation inhibition; format: biochemical; details: recombinant CYP2D6 BACULOSOMES, pH 8, probe Vivid blue substrate (10 μM), O-dealkylation
[12] = target: CYP3A4 relative to CYP2A6 (Homo sapiens (Human), UniProt P08684); experiment: in vitro; details: human; for selectivity ratio at 30 min: pH 7.5
Sequence of CYP3A4 relative to CYP2A6 (P08684 whole entry): as the sequence (P08684 whole entry) above
Protocol: as §1, §2

[13] = target: T2, human CYP2A6 (Homo sapiens (Human), UniProt P11509)
T2 sequence (P11509 whole entry): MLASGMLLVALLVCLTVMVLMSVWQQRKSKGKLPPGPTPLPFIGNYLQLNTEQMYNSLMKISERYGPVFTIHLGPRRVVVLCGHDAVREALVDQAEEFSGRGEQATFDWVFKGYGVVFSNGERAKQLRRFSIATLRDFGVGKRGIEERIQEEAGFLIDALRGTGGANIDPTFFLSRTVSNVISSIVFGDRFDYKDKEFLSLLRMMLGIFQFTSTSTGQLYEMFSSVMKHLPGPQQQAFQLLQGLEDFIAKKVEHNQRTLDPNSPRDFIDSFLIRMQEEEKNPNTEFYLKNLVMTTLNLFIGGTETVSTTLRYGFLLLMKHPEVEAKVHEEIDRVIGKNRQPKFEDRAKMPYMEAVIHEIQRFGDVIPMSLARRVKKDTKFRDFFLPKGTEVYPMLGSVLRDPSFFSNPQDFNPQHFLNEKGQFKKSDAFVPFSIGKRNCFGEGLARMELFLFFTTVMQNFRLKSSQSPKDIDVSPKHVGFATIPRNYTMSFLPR

[14] = target: CYP2E1 relative to CYP2A6 (Homo sapiens (Human), UniProt P05181); experiment: CYP2E1 Vivid blue substrate O-dealkylation inhibition; format: biochemical
Sequence of CYP2E1 relative to CYP2A6 (P05181 whole entry): as the sequence (P05181 whole entry) above

[15] = target: T1, P450 2A6dH
Protocol: as §3

[16] = target: CYP2B6 relative to CYP2A6 (Homo sapiens (Human), UniProt P20813); experiment: CYP2B6 Vivid blue substrate O-dealkylation inhibition; format: biochemical
Sequence of CYP2B6 relative to CYP2A6 (P20813 whole entry): as the sequence (P20813 whole entry) above

[17] = target: T2, human CYP2A6; experiment: CYP2A6 mediated coumarin 7-hydroxylation inhibition; details: for Ki: coumarin 7-hydroxylation; for IC50: read-out: IC50 ± SD 2A6, insect cell microsomes expressing CYP2A6, 0.1M Tris buffer, mean of at least 3 determinations ± SD
[18] = target: mouse CYP2A5 (Mus musculus (Mouse), UniProt P20852); experiment: Inhibition of mouse CYP2A5; format: biochemical; details: read-out: IC50 mCYP2A5
[19] = human, recombinant CYP2C19 BACULOSOMES, pH 8, probe Vivid blue substrate (10 μM), O-dealkylation, read-out: 2C19/2A6 selectivity ratio (IC50 CYPX/IC50 CYP2A6)
[20] = human, read-out: 2D6/2A6 selectivity ratio (IC50 CYPX/IC50 CYP2A6)
[21] = insect cell microsomes expressing CYP2C19, 0.2M potassium phosphate buffer, mean of at least 3 determinations ± SD, read-out: IC50 ± SD 2C19
[22] = human, pH 8, 2C9/2A6 selectivity ratio (IC50 CYPX/IC50 CYP2A6)
[23] = insect cell microsomes expressing CYP2D6, 0.2M potassium phosphate buffer, mean of at least 3 determinations ± SD, read-out: IC50 ± SD 2D6
[24] = apparent Ki from IC50 by Cheng-Prusoff
[25] = recombinant CYP2E1 BACULOSOMES, pH 8, probe Vivid blue substrate (10 μM), O-dealkylation, human CYP2E1 versus human CYP2A6, read-out: Selectivity ratio (IC50 CYPX/IC50 CYP2A6) 2E1/2A6
[26] = insect cell microsomes expressing CYP2E1, 0.2M potassium phosphate buffer, mean of at least 3 determinations ± SD, read-out: IC50 ± SD 2E1
[27] = human, recombinant CYP2B6 BACULOSOMES, pH 8, probe Vivid blue substrate (5 μM), O-dealkylation, read-out: 2B6/2A6 selectivity ratio (IC50 CYPX/IC50 CYP2A6)
[28] = insect cell microsomes expressing CYP2B6, 0.2M potassium phosphate buffer, mean of at least 3 determinations ± SD, read-out: IC50 ± SD 2B6
[29] = insect cell microsomes expressing CYP2C9, 0.2M potassium phosphate buffer, mean of at least 3 determinations ± SD, read-out: IC50 ± SD 2C9
[30] = recombinant CYP2C19 BACULOSOMES, pH 8, probe Vivid blue substrate (10 μM), O-dealkylation, human CYP2C19 versus human CYP2A6, read-out: Selectivity ratio (IC50 CYPX/IC50 CYP2A6) 2C19/2A6
[31] = recombinant CYP2C9 BACULOSOMES, pH 8, probe Vivid blue substrate (10 μM), O-dealkylation, human CYP2C9 versus human CYP2A6, read-out: Selectivity ratio (IC50 CYPX/IC50 CYP2A6) 2C9/2A6
[32] = human CYP2D6 versus human CYP2A6, read-out: Selectivity ratio (IC50 CYPX/IC50 CYP2A6) 2D6/2A6
[33] = recombinant CYP2B6 BACULOSOMES, pH 8, probe Vivid blue substrate (5 μM), O-dealkylation, human CYP2B6 versus human CYP2A6, read-out: Selectivity ratio (IC50 CYPX/IC50 CYP2A6) 2B6/2A6

Sequence of CYP2C19 (P33261 whole entry): as the sequence (P33261 whole entry) above
Sequence of CYP2C9 (P11712 whole entry, the tested form may be a part): as the sequence (P11712 whole entry) above

CN(C)Cc1ccc(-c2cccnc2)o1 [Compound 2c]
IC50 ([1]; Table 4, unit inferred, read-out: 2C19 IC50 ± SD): 157 ± 10 µM | IC50 ([2]; Table 4, unit inferred, read-out: 2C9 IC50 ± SD): 222 ± 16 µM | binding type [3]: Type II | IC50 ([4]; Table 4, unit inferred, read-out: 2D6 IC50 ± SD): 253 ± 35 µM | IC50 [5]: 294 ± 25 µM | MLM t1/2 ([6]; 40 μM test compound): Stable^a | IC50 ([7]; Table 4, unit inferred, read-out: 2E1 IC50 ± SD): > 400 µM | IC50 ([8]; Table 4, unit inferred, read-out: 2B6 IC50 ± SD): > 400 µM

Cn1cnc(-c2cccnc2)c1 [Compound 5]
selectivity ratio at 40 min [9, 19]: 163 | selectivity ratio at 40 min ([10]; human, recombinant CYP2C9 BACULOSOMES, pH 8, probe Vivid blue substrate (10 μM), O-dealkylation, read-out: 2C9/2A6 selectivity ratio (IC50 CYPX/IC50 CYP2A6)): 106 | selectivity ratio at 40 min [11, 20]: 272 | selectivity ratio at 30 min [12]: 349 | IC50 [5]: 262 ± 63 µM | IC50 [13]: 750 ± 100 nM | IC50 ([13]; human, pH 7.5): 748 ± 100 nM | half-life at 40 μM ([6]; mouse, pH 7.4): 481 min | selectivity ratio at 40 min ([14]; human, pH 8): 5 | binding type [15]: Type II | λmax [15]: 429 nm | λmin [15]: 409 nm | selectivity ratio at 40 min ([16]; human, pH 8): 195

c1cncc(-c2ccc(CNCc3ccc(-c4cccnc4)s3)s2)c1 [Compound 38b, bis((5-(pyridin-3-yl)thiophen-2-yl)methyl)amine]
IC50 [1, 21]: 0.21 ± 0.03 µM | selectivity ratio at 40 min [9, 19]: 0.03 | IC50 ([2]; human, pH 8): 0.71 ± 0.75 µM | selectivity ratio [10, 22]: 0.1 | selectivity ratio ([10]; human, pH 8, Selectivity ratio (IC50 CYPX/IC50 CYP2A6) 2C9/2A6): 0.1 | selectivity ratio at 40 min [11, 20]: 1.7 | IC50 [4, 23]: 12.9 ± 1.9 µM | selectivity ratio at 30 min [12]: > 54 | Ki [17, 24]: 1200 ± 200 nM | IC50 [17]: 7.4 ± 1.3 µM | fold decrease of CYP2A6 inhibitor potency ([17]; relative to compound 38a): 60 fold | selectivity ratio at 40 min [14, 25]: 0.12 | IC50 [7, 26]: 0.86 ± 0.24 µM | selectivity ratio at 40 min [16, 27]: 1.2 | IC50 [8, 28]: 9 ± 0.8 µM

NCc1ccc(-c2cccnc2)o1 [Compound 39a, (5-(Pyridin-3-yl)furan-2-yl)methanamine]
IC50 [1, 21]: 22 ± 1.6 µM | selectivity ratio at 40 min ([9]; human, pH 8, 2C19/2A6 selectivity ratio (IC50 CYPX/IC50 CYP2A6)): 82 | selectivity ratio at 40 min ([9]; human, pH 8, human CYP2C19 versus human CYP2A6, read-out: Selectivity ratio (IC50 CYPX/IC50 CYP2A6) 2C19/2A6): 82 | IC50 [2, 29]: 11.7 ± 2.2 µM | selectivity ratio at 40 min [10, 22]: 41 | selectivity ratio at 40 min ([10]; human, pH 8, human CYP2C9 versus human CYP2A6, read-out: Selectivity ratio (IC50 CYPX/IC50 CYP2A6) 2C9/2A6): 41 | selectivity ratio at 40 min ([11]; human, human CYP2D6 versus human CYP2A6, read-out: Selectivity ratio (IC50 CYPX/IC50 CYP2A6) 2D6/2A6): 41 | selectivity ratio at 40 min [11, 20]: 41 | IC50 [4, 23]: 11.3 ± 2.6 µM | selectivity ratio at 30 min [12]: 174 | IC50 ([13]; human, pH 7.5): 270 ± 20 nM | Ki ([13]; human, pH 7.5): 40 ± 4 nM | selectivity ratio at 40 min ([14]; human, recombinant CYP2E1 BACULOSOMES, pH 8, probe Vivid blue substrate (10 μM), O-dealkylation, read-out: 2E1/2A6 selectivity ratio (IC50 CYPX/IC50 CYP2A6)): 637 | IC50 [7, 26]: 172 ± 52 µM | binding type [15]: type 2 | selectivity ratio at 40 min [16, 27]: 707 | IC50 [8, 28]: 191 ± 24 µM

Nc1ccc(-c2cccnc2)s1 [Compound 57, 5-(Pyridin-3-yl)thiophen-2-amine]
IC50 [1, 21]: 3.2 ± 0.2 µM | selectivity ratio at 40 min [9, 30]: 0.9 | IC50 [2, 29]: 2.1 ± 0.2 µM | selectivity ratio at 40 min [10, 31]: 0.6 | selectivity ratio at 40 min [11, 32]: 4.1 | IC50 [4, 23]: 14.4 ± 0.9 µM | selectivity ratio ([12]; pH 7.5, 3A4/2A6 selectivity ratio (IC50 CYPX/IC50 CYP2A6)): 2 | selectivity ratio ([12]; pH 7.5, Selectivity ratio (IC50 CYPX/IC50 CYP2A6) 3A4/2A6): 2 | IC50 ([5]; read-out: IC50 ± SD 3A4, human liver microsomes, 0.05M potassium phosphate buffer, pH 7.5, mean of at least 3 determinations ± SD): 6.3 ± 1.4 µM | Ki [17, 24]: 590 ± 50 nM | Ki ([17]; unit inferred): 590 ± 50 nM | IC50 [17]: 3.5 ± 0.3 µM | selectivity ratio at 40 min [14, 25]: 8.9 | IC50 [7, 26]: 31.1 ± 5.7 µM | selectivity ratio at 40 min [16, 33]: 1.9 | IC50 [8, 28]: 6.8 ± 0.8 µM

c1ccc(Cn2cnc(-c3cccnc3)c2)cc1 [Compound 60, 3-(1-benzyl-1H-imidazol-4-yl)pyridine]
IC50 [1, 21]: 12.1 ± 0.6 µM | selectivity ratio at 40 min [9, 30]: 9 | IC50 [2, 29]: 26.9 ± 2.9 µM | selectivity ratio at 40 min [10, 31]: 19 | selectivity ratio at 40 min [11, 32]: 26 | IC50 [4, 23]: 36.3 ± 4.4 µM | selectivity ratio at 30 min [12]: > 54 | IC50 ([5]; microsomes, pH 7.5): 75.1 ± 13.9 µM | Ki [17, 24]: 230 ± 30 nM | IC50 [17]: 1.4 ± 0.2 µM | selectivity ratio at 40 min ([14]; human, pH 8): 0.4 | IC50 [7, 26]: 0.58 ± 0.1 µM | selectivity ratio at 40 min [16, 33]: 4 | IC50 [8, 28]: 5.3 ± 0.9 µM

Cc1cscc1-c1cccnc1 [TD-I-103]
IC50 [18]: 750 nM | IC50 ([13]; human, pH 7.5): 1850 ± 500 nM

NCc1ccc(-c2cccnc2)s1 [TD-II-039]
IC50 [18]: 500 nM

From US8609708B2 (Human BioMolecular Research Institute, priority 2003, dated 2013)
